Data: US11197859B2 (AUTIFONY THERAPEUTICS LIMITED, priority 2010, dated 2021)
“Also recorded” adds a separate entry of the source.

Tests used:
[1] = test system: Male CD rats; assay: Electroshock seizure model in rats; type: in vivo, rat; conditions: 300 mg/kg p.o., 1 hour before test; positive control
Protocol: Male CD rats (85-130 g) were supplied by Charles River, Italy.
Testing involved determining the threshold for tonic hindlimb extensor seizures using a Hugo Sachs Electronik stimulator which delivers a constant current of 0.3 second duration, 50 Hz, sinewave form, fully adjustable between 1 and 300 mA. Stimuli were delivered via corneal electrodes (Stean T O, Atkins A R, Heidbreder C A, Quinn L P, Trail B K, Upton N. (2005) Br J Pharmacol. 144(5):628-35). Seizure threshold was determined using the ‘up and down’ method of Kimball et al. (1957)(Kimball A W, Burnett W T Jr, Doherty D G. (1957) Radiat Res. 7(1):1-12). The first animal tested in each group was stimulated with a current that might be expected to be close to the threshold for induction of a seizure. If a tonic seizure was not induced, then the next animal in the group received a stimulus 5 mA higher. If a tonic seizure was induced, then the next animal received a stimulus 5 mA lower. This is repeated for all animals within the control (vehicle) group. In the case of groups treated with a test compound steps of 5 to 10 mA were used. At the end of the study, blood samples were taken for analysis of the drug concentrations in this compartment (n=4/group).
All doses were calculated as base. Sodium valproate was suspended in Methocell 1% (w/v) and dosed via the oral (p.o.) route at 5 mL/kg 1 hour before test. Reference Example RE1 was dissolved in DMSO and then suspended in Methocell 1% (w/v) to a final DMSO concentration of 5% (v/v). Reference Example RE1 was then dosed p.o. at 5 mL/kg 2 hours before test.
Induction of seizure is measured as an all-or-nothing effect scored as either present (+) or absent (0) for each animal. […] Drug effects were calculated as the % change in CC50. Significant differences between drug-treated animals and appropriate vehicle treated groups were assessed according to the methods of Litchfield and Wilcoxon (1949).

[2] = test system: "fast-firing" interneurons in the somatosensory cortex; assay: Recordings from fast-firing interneurons, spike probability on trains of depolarising pulses; type: cell-based, mouse; conditions: 1 microM, n=6; trains at 100, 200, 300 Hz; effect at 300 Hz, p<0.05
Description: Kv3.1 and Kv3.2 channels must activate and deactivate very rapidly in order to allow neurons to fire actions potentials at high frequency (Rudy and McBain, 2001, Trends in Neurosciences 24, 517-526). Slowing of activation is likely to delay the onset of action potential repolarisation; slowing of deactivation could lead to hyperpolarising currents that reduce the excitability of the neuron and delay the time before the neuron can fire a further action potential. Together these slowing effects on channel activation and deactivation are likely to lead to a reduction rather than a facilitation of the neurons ability to fire at high frequencies. Thus compounds that have this slowing effect on the Kv3.1 and/or Kv3.2 channels may slow neuronal firing.
The neurons are induced to fire at high frequencies by trains of high frequency depolarising current pulses at 100, 200, and 300 Hz. The ability of the neuron to fire an action potential on each pulse is determined. […] In the absence of drug (closed circles, n=9), the neurons maintained a spike probability of 1 up to 300 Hz.

[3] = molecular target: T1, human Kv3.2 channels (hKv3.2) (Homo sapiens, UniProt Q96PR1); assay: IonWorks Quattro electrophysiology, hKv3.2 currents, activation time constant (Tauact); type: cell-based; conditions: hKv3.2, -15 mV pulse; compound 0.2 μM (concentration giving ~0.3 nA current)
T1 construct: expressed in transfected cells
T1 sequence (Q96PR1 1-638): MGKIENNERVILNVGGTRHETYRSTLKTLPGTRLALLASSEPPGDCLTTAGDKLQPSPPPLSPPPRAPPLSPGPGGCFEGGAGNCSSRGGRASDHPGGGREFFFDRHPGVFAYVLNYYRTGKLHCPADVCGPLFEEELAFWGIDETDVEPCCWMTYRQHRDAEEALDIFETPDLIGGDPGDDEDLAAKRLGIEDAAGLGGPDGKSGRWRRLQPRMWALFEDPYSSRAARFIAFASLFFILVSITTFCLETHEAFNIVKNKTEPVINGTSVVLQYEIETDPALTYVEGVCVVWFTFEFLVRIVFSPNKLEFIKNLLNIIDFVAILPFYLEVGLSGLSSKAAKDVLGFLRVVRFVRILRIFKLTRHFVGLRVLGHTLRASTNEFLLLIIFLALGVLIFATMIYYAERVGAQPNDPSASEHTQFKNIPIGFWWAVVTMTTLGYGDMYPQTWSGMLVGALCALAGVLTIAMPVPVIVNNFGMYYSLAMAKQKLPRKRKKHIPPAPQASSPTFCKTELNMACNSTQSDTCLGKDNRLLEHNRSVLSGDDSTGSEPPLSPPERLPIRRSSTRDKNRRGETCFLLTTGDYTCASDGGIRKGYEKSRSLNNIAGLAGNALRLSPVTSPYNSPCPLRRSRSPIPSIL
Protocol: The ability of the compounds of the disclosure to modulate the voltage-gated potassium channel subtypes Kv3.2/3.1 may be determined using the following assay.
To assess compound effects on human Kv3.2 channels (hKv3.2), a stable cell line expressing hKv3.2 was created by transfecting Chinese Hamster Ovary (CHO)-K1 cells with a pCIH5-hKv3.2 vector. Cells were cultured in DMEM/F12 medium supplemented by 10% Foetal Bovine Serum, 1× non-essential amino acids (Invitrogen) and 500 ug/ml of Hygromycin-B (Invitrogen). Cells were grown and maintained at 37° C. in a humidified environment containing 5% CO2 in air.
The day of the experiment, cells were removed from the incubator and the culture medium removed. Cells were washed with 5 ml of Dulbecco's PBS (DPBS) calcium and magnesium free and detached by the addition of 3 ml Versene (Invitrogen, Italy) followed by a brief incubation at 37° C. for 5 minutes. The flask was tapped to dislodge cells and 10 ml of DPBS containing calcium and magnesium was added to prepare a cell suspension. The cell suspension was then placed into a 15 ml centrifuge tube and centrifuged for 2 min at 1200 rpm. After centrifugation, the supernatant was removed and the cell pellet re-suspended in 4 ml of DPBS containing calcium and magnesium using a 5 ml pipette to break up the pellet. Cell suspension volume was then corrected to give a cell concentration for the assay of approximately 3 million cells per ml.
Experiments were conducted at room temperature using IonWorks Quattro™ planar array electrophysiology technology (Molecular Devices Corp.) with PatchPlate™ PPC. Stimulation protocols and data acquisition were carried out using a microcomputer (Dell Pentium 4). Planar electrode hole resistances(Rp) were determined by applying a 10 mV voltage step across each well. These measurements were performed before cell addition. […] Following this, amphotericin-B solution was added to the intracellular face of the electrode to achieve intracellular access. Cells were held at −70 mV. Leak subtraction was conducted in all experiments by applying 50 ms hyperpolarizing (10 mV) prepulses to evoke leak currents followed by a 20 ms period at the holding potential before test pulses. From the holding potential of −70 mV, a first test pulse to −15 mV was applied for 100 ms and following a further 100 ms at −70 mV, a second pulse to 40 mV was applied for 50 ms. Cells were then maintained for a further 100 ms at −100 mV and then a voltage ramp from −100 mV to 40 mV was applied over 200 ms. In all experiments, the test pulses protocol was performed in the absence (pre-read) and presence (post-read) of the test compound. Pre- and post-reads were separated by the compound addition followed by a 3 minute incubation.
The intracellular solution contained the following (in mM): K-gluconate 100, KCl 54, MgCl2 3.2, HEPES 5, adjusted to pH 7.3 with KOH. Amphotericin-B solution was prepared as 50 mg/ml stock solution in DMSO and diluted to a final working concentration of 0.1 mg/ml in intracellular solution.
The final assay dilution was 200 and the final compound concentrations were in the range 50 μM to 50 nM.
The recordings were analysed and filtered using both seal resistance (>20 MΩ) and peak current amplitude (>500 pA at the voltage step of 40 mV) in the absence of compound to eliminate unsuitable cells from further analysis. Kv3 channel-mediated outward currents were measured determined from the mean amplitude of the current over the final 10 ms of the −15 mV voltage pulse minus the mean baseline current at −70 mV over a 10 ms period just prior to the −15 mV step. This Kv3 channel currents following addition of the test compound were then compared with the currents recorded prior to compound addition. […] The normalised data were analysed using ActivityBase or Excel software.

[4] = test system: Male CD-1 mice; assay: Psychostimulant (amphetamine)-induced hyperactivity in mice; conditions: AMPH 2 mg/kg i.p. + clozapine 3 mg/kg i.p. 30 min before; over 60 min; mean ± sem; p<0.01 vs amphetamine alone
[5] = test system: parvalbumin-positive interneurons in the somatosensory cortex; assay: Firing of parvalbumin-positive interneurons in somatosensory cortex slices, in vitro; type: cell-based, mouse; conditions: 0.5 mM, vs control slices (0.1% DMSO)
[6] = test system: MNTB neurons; assay: High-voltage activated potassium currents in MNTB neurons, in vitro; type: cell-based, mouse; conditions: 1 mM
Protocol: Male CBA/Ca mice (aged 12-16 days) were used in these experiments (in accordance with the UK Animals Scientific Procedures Act, 1986). Brain slices containing the medial nucleus of the trapezoid body (MNTB) were prepared as described previously (Brew and Forsythe, 2005).
Chemicals and reagents were purchased from Sigma, (Poole, UK) unless otherwise noted. Reference Example RE1 was dissolved in DMSO and diluted in ACSF to the required concentration.
Recordings from identified MNTB neurons were conducted as previously described (Brew and Forsythe, 2005). Slices was placed in a superfusion chamber on an inverted microscope stage and continuously perfused with gassed (95% O2-5% CO2) ACSF at a rate of 1 ml min-1 at room temperature. Whole-cell recordings were made from visually identified MNTB neurons using an […] amplifier (Molecular Devices, Union City, Calif., USA). Patch solution comprised (in mM) potassium gluconate (97.5), KCl (32.5), Hepes (40), EGTA (5), MgCl2 (1), Na2phosphocreatin (5), pH 7.2 with KOH. Pipettes had resistances of 3-5 MΩ and series resistances were 6-10 MΩ (compensated by 70%, 10 μs lag). Access resistance was frequently monitored and the recording discarded if increases were more than 2 MΩ. […]

[7] = test system: Kv3 channels; conditions: cited from earlier work

Structure (SMILES): CCCC(CCC)C(=O)[O-].[Na+] [sodium valproate, Sodium valproate, reference compound]
- increase in seizure threshold (% change in CC50) [1]: 258%

Structure (SMILES): CC[C@H]1NC(=O)N(c2ccc(Oc3cccc4c3C3(CC3)CO4)nc2)C1=O [Example 15, (5R)-5-ethyl-3-[6-(spiro[1-benzofuran-3,1′-cyclopropan]-4-yloxy)-3-pyridinyl]-2,4-imidazolidinedione]
- ability of neurons to fire (spike probability) on trains of depolarising pulses [2]: reduces the ability of the neurons to fire; also recorded: unable to follow trains at the highest frequency
- Tauact mean [3]: 50.1 ms

Structure (SMILES): CN1CCN(C2=Nc3cc(Cl)ccc3Nc3ccccc32)CC1 [Clozapine, reference compound]
- Total Distance Travelled (cm) [4]: 932 ± 362 cm

Structure (SMILES): CC[N+](CC)(CC)CC [TEA, Tetraethylammonium, reference compound]
- action potential half-width [5]: significantly increased
- maximal frequency of action potential firing in response to step currents [5]: fired at a lower maximal frequency
- amplitude of outward high voltage-activated potassium currents evoked by voltage steps to +40 mV [6]: significantly reduced
- inhibition of Kv3 channels [7]: inhibit the channels at low millimolar concentrations
